These are literature values, as cited in US12509462B2, “3-(phenylsulfonyl)-[1,2,3]triazolo[1,5A]quinazolin-5(4H)-one derivatives” (BIOVERSYS AG, priority 2018, dated 2025).

For this data set, the system named is hla, psmα and pvl. The conditions noted are these: across all four agr groups; cited from earlier work.

Take `CC(C)c1ccc(S(=O)(=O)c2nnn3c2nc(O)c2ccccc23)cc1` [Savirin, reference compound]: the “Modulation of AgrA-regulated toxin gene transcription such as hla, psmα and pvl” value is on record as “potent modulator”.
